Experiment [1] has as its target T1, O-GlcNAcase (Homo sapiens, UniProt O60502).
T1 sequence (O60502 1-916): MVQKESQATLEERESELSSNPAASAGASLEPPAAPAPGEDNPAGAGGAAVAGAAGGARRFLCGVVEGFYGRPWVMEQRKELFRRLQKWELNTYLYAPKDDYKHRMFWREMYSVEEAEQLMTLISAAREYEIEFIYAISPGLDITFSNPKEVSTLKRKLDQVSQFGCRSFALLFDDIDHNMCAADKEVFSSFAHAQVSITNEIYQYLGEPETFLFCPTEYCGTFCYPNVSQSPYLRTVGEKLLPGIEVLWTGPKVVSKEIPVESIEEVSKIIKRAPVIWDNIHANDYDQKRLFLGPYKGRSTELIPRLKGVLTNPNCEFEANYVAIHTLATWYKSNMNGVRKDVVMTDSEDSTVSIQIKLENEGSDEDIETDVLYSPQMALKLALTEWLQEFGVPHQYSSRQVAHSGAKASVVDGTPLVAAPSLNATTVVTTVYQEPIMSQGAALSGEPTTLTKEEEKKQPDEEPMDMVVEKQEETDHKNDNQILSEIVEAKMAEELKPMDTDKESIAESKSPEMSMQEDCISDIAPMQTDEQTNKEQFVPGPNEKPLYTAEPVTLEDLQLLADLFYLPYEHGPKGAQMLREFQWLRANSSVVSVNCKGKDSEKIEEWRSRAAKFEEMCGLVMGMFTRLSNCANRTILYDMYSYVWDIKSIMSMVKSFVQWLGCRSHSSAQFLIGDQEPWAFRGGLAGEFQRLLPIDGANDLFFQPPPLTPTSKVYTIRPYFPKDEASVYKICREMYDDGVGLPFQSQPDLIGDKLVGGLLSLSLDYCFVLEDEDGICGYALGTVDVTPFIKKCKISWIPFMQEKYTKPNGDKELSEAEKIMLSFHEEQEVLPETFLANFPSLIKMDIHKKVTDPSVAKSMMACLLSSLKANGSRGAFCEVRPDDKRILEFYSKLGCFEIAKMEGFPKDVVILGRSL
In words: Michaelis-Menten kinetics of O-GlcNAcase catalyzed hydrolysis of 4-methylumbelliferyl GlcNAc substrate analogues. Particulars: 37° C., pH 6.5. Format: biochemical. An excerpt: For O-GlcNAcase the value of Vmax[E]0/KM is also dependant on the extent of fluorine substitution but the slope is more shallow (ρ=−0.42±0.08, FIG. 2C).

Experiment [2] deals with T1, O-GlcNAcase. In words: Inhibition of O-GlcNAcase, substrate pNP-GlcNAc, Dixon plots. Particulars: for Selectivity Ratio (β-Hexosaminidase KI/O-GlcNAcase KI): Table 3.
For experiment [3], the system named is human placental β-hexosaminidase. The experiment can be described thus: Inhibition of β-hexosaminidase, substrate pNP-GlcNAc, Dixon plots. Particulars: for Ki: read-out: β-Hexosaminidase KI, Table 3, substrate pNP-GlcNAc 0.5 mM, pH 4.25.
Experiment [4] deals with human placental β-hexosaminidase. In words: Inhibition of β-hexosaminidase, substrate MU-GlcNAc (5), Dixon plots.
Experiment [5] addresses T1, O-GlcNAcase. In words: biochemical.
Experiment [6] concerns the target T1, O-GlcNAcase. The settings on record: for Selectivity Ratio (β-Hex KI/O-GlcNAcase KI): Table 2.
The test system of experiment [7] is O-GlcNAc modified proteins in rat tissues. In words: Oral availability: tissue O-GlcNAc levels in rats fed inhibitor in chow. Format: in vivo. On the procedure: To determine if the inhibitor 9c is orally available, it was incorporated into the chow (Lab Diet 5001 Rodent Diet, PMI Nutrition International, LLC). To make the rat chow, 600 g of the ground chow was mixed with 355 ml of water and 5 μL of the inhibitor dissolved in ethanol. Small pieces were then prepared with a pasta machine (Pasta Express, Creative) and dehydrated overnight at 37° C. (Snackmaster Dehydrator, American Harvest). Five sets of chow were made with the following amounts of inhibitor: 0 mg kg^−1 days^−1, 100 or 1000 mg kg^−1 days^−1 of the deprotected (polar) inhibitor, and 100 or 1000 mg kg^−1 day^−1 of the protected (non-polar) inhibitor. […] Ten five-week old healthy Sprague-Dawley rats (two per set of food) were then allowed to feed on the rat chow for three days. The animals were then sacrificed and tissues were collected, homogenized, and analyzed as described above.

The next experiment relates to human β-hexosaminidase. In words: Michaelis-Menten kinetics of β-hexosaminidase catalyzed hydrolysis of 4-methylumbelliferyl GlcNAc substrate analogues. The experiment is classed as biochemical. The settings on record: 37° C., pH 4.25. The text has this:
These compounds were first tested with the lysosomal human β-hexosamindase since this enzyme is known to proceed via a mechanism involving anchimeric assistance (FIG. 2A). Although Michaelian saturation kinetics were not observed for all substrates (Table 1), Vmax[E]o/KM, which is proportional to the second order rate constant governing the enzyme catalyzed reaction, could be determined from the initial slope of the Michaelis-Menten plot (FIG. 2A Inset). […] As expected, decreasing the basicity of the carbonyl oxygen has a deleterious effect on catalysis.

Setting [8] is: read-out: KI, β-hexosaminidase, human lysosomal β-hexosaminidase.
[9] abbreviates: read-out: β-Hexosaminidase KI, Table 2, substrate 5 at 0.64 mM, pH 4.25, Dixon plots.
The mark [10] stands for this setting: rats fed inhibitor in food for three days.

For orientation: Km means the concentration of substrate that gives half-maximal velocity. The term Ki denotes a measure of affinity in units of concentration, obtained from inhibition or displacement.

Entries after “also recorded” stand apart in the source; their conditions may differ. Marks after values point to notes of the source that are not given here.

Regarding `Cc1cc(=O)oc2cc(O[C@@H]3O[C@H](CO)[C@@H](O)[C@H](O)[C@H]3NC(=O)C(F)F)ccc12` [MuGlcNAc-F2, 4-Methylumbelliferyl 2-deoxy-2-difluoroacetamido-β-D-glucopyranoside], on O-GlcNAcase [1], the Michaelis constant (Km) turned out to be 450 ± 50 µM and the “Vmax [E]o” value stood at 0.16 ± 0.01 µmol/min/mg.
With `CCC(=O)N[C@H]1C(=NOC(=O)Nc2ccccc2)O[C@H](CO)[C@@H](O)[C@@H]1O` [Compound 22a], at O-GlcNAcase [2], the inhibition constant (Ki) came out at 1.2 µM and the “Selectivity Ratio (β-Hexosaminidase KI/O-GlcNAcase KI)” value is reported as 1. In experiment [3], the “increase in KI for β-hexosaminidase compared to parent PUGNAc” value amounted to 33 fold and the Ki amounted to 1.2 µM.
Consider `CC(C)C(=O)N[C@H]1C(=NOC(=O)Nc2ccccc2)O[C@H](CO)[C@@H](O)[C@@H]1O` [Compound 22e, O-(2-deoxy-2-isobutamido-D-glucopyranosylidene)amino N-Phenylcarbamate], for which, at O-GlcNAcase [2], the inhibition constant Ki came out at 9 µM and the “Selectivity Ratio (β-Hexosaminidase KI/O-GlcNAcase KI)” value amounted to 2. Moreover, the Ki in experiment [3] stood at 20 µM.
Take `Cc1cc(=O)oc2cc(O[C@@H]3O[C@H](CO)[C@@H](O)[C@H](O)[C@H]3NC(=O)C(F)(F)F)ccc12` [MuGlcNAc-F3, 4-Methylumbelliferyl 2-deoxy-2-trifluoroacetamido-β-D-glucopyranoside]: on O-GlcNAcase [1], the Km was determined as 380 ± 30 µM and the “Vmax [E]o” value was determined as 0.033 ± 0.001 µmol/min/mg.
Take `CCCCC(=O)NC1C(=NOC(=O)Nc2ccccc2)OC(CO)C(O)C1O` (stereo not shown) [Compound 22c]: at O-GlcNAcase [2], the Ki came to 40 µM and the “Selectivity Ratio (β-Hexosaminidase KI/O-GlcNAcase KI)” value amounted to 6. Also, the Ki in experiment [3] turned out to be 220 µM.
In the same order, the values of `CC(C)CC(=O)N[C@H]1C(=NOC(=O)Nc2ccccc2)O[C@H](CO)[C@@H](O)[C@@H]1O` [Compound 22f, O-(2-deoxy-2-isovaleramido-D-glucopyranosylidene)amino N-Phenylcarbamate] are 190 µM, “≧6” and > 1200 µM.
For `CC(=O)N[C@H]1C(O)O[C@H](CO)[C@@H](O)[C@@H]1O` (stereo partly shown) [GlcNAc, N-acetylglucosamine, reference compound], the Ki in experiment [4] (setting [8]) came to 1200 µM; in experiment [4] (setting [9]), 1200 µM; at O-GlcNAcase [5], 1500 µM. On O-GlcNAcase [6], the “Selectivity Ratio (β-Hex KI/O-GlcNAcase KI)” value amounted to 0.8.
For `CC(=O)N[C@H]1/C(=N/OC(=O)Nc2ccccc2)O[C@H](CO)[C@@H](O)[C@@H]1O` [PUGNAc, O-(2-acetamido-2-deoxy-D-glucopyranosylidene)amino N-phenylcarbamate], the inhibition constant Ki in experiment [4] (setting [8]), in experiment [4] (setting [9]) and in experiment [3] was 0.036 µM in each case.
For the molecule `CCCC1=N[C@@H]2[C@@H](OC(C)=O)[C@H](OC(C)=O)[C@@H](COC(C)=O)O[C@@H]2S1` [9c (protected), 3,4,6-tri-O-acetyl-1,2-dideoxy-2′-propyl-α-D-glucopyranoso-[2,1-d]-Δ2′-thiazoline], in experiment [7] (rats fed inhibitor in chow for three days), the “cellular levels of O-GlcNAc modified proteins in brain tissue, oral 100 mg/kg/day” value is reported as “marked increases”. Further, the “cellular levels of O-GlcNAc modified proteins in brain tissue, oral 1000 mg/kg/day” value in experiment [7] (rats fed inhibitor in chow for three days, compared with 100 mg/kg/day) is recorded as “even greater”. In experiment [7] (setting [10]), the “O-GlcNAc modified proteins in brain, muscle, pancreas, fat and spleen, oral 100 mg kg^−1 day^−1 (FIG. 12 legend)” value is on record as “large increases”; the “O-GlcNAc modified proteins in tissues, oral 1000 mg kg^−1 days^−1 (FIG. 12 legend)” value was “slightly greater increases”.
As to `CC(C)C1=N[C@@H]2[C@@H](O)[C@H](O)[C@@H](CO)O[C@@H]2S1` [Compound 9f, 1,2-dideoxy-2′-isopropyl-α-D-glucopyranoso-[2,1-d]-Δ2′-thiazoline], in experiment [4] (setting [9]), the Ki is 720 µM. The same molecule returned an inhibitory constant (Ki) at O-GlcNAcase [5] of 1.6 µM. On O-GlcNAcase [6], the “inhibition of O-GlcNAcase, in words” value is “good inhibitors; also recorded: potent inhibitors”; the “selectivity for O-GlcNAcase over β-hexosaminidase, in words” value is on record as “remarkable selectivity”; the “selectivity ratio for O-GlcNAcase over β-hexosaminidase” value turned out to be 700 fold; the “Selectivity Ratio (β-Hex KI/O-GlcNAcase KI)” value is on record as 700.
On to `Cc1cc(=O)oc2cc(O[C@@H]3O[C@H](CO)[C@@H](O)[C@H](O)[C@H]3NC(=O)CF)ccc12` [MuGlcNAc-F1, 4-Methylumbelliferyl 2-deoxy-2-fluoroacetamido-β-D-glucopyranoside], for which, on O-GlcNAcase [1], the Michaelis constant (Km) turned out to be 490 ± 60 µM and the “Vmax [E]o” value was found to be 0.60 ± 0.03 µmol/min/mg. Further, in the experiment on human β-hexosaminidase, the Km was determined as 3800 ± 400 µM and the “Vmax [E]o” value was 3.3 ± 0.2^b μmol min^−1 mg^−1.
Regarding `CCCCC1=N[C@@H]2[C@@H](O)[C@H](O)[C@@H](CO)O[C@@H]2S1` [Compound 9d, 1,2-dideoxy-2′-butyl-α-D-glucopyranoso-[2,1-d]-Δ2′-thiazoline], the inhibition constant (Ki) in experiment [4] (setting [9]) came out at 4600 µM. The molecule also gave a Ki on O-GlcNAcase [5] of 1.5 µM. In addition, on O-GlcNAcase [6], the “selectivity ratio for O-GlcNAcase over β-hexosaminidase” value amounted to 3100 fold and the “Selectivity Ratio (β-Hex KI/O-GlcNAcase KI)” value was determined as 3100.
As to `CCCCCC1=N[C@@H]2[C@@H](O)[C@H](O)[C@@H](CO)O[C@@H]2S1` [Compound 9e, 1,2-dideoxy-2′-pentyl-α-D-glucopyranoso-[2,1-d]-Δ2′-thiazoline], the Ki was determined as 11000 µM in experiment [4] (setting [9]) and 57 µM at O-GlcNAcase [5]. In addition, at O-GlcNAcase [6], the “Selectivity Ratio (β-Hex KI/O-GlcNAcase KI)” value was found to be 100.
`CCC1=N[C@@H]2[C@@H](O)[C@H](O)[C@@H](CO)O[C@@H]2S1` [Compound 9b, 1,2-dideoxy-2′-ethyl-α-D-glucopyranoso-[2,1-d]-Δ2′-thiazoline]: the “increase in KI for β-hexosaminidase compared to parent NAG-thiazoline (9a)” value in experiment [4] is 460 fold. Also, the Ki in experiment [4] (setting [9]) is 32 µM. This molecule also yielded a Ki at O-GlcNAcase [5] of 0.12 µM. Besides, on O-GlcNAcase [6], the “inhibition of O-GlcNAcase, in words” value is “potent inhibitors”; the “selectivity for O-GlcNAcase over β-hexosaminidase, in words” value was “remarkable selectivity”; the “Selectivity Ratio (β-Hex KI/O-GlcNAcase KI)” value was found to be 270.
As to `CCCCCC(=O)N[C@H]1C(=NOC(=O)Nc2ccccc2)O[C@H](CO)[C@@H](O)[C@@H]1O` [Compound 22d, O-(2-deoxy-2-hexamido-D-glucopyranosylidene)amino N-Phenylcarbamate], at O-GlcNAcase [2], the affinity, expressed as Ki, was 210 µM and the “Selectivity Ratio (β-Hexosaminidase KI/O-GlcNAcase KI)” value is listed as “≧5”. Moreover, the Ki in experiment [3] was > 900 µM.
In the same order, the values of `CCCC(=O)N[C@H]1C(=NOC(=O)Nc2ccccc2)O[C@H](CO)[C@@H](O)[C@@H]1O` [Compound 22b, O-(2-deoxy-2-butamido-D-glucopyranosylidene)amino N-Phenylcarbamate] are 2.4 µM, 11 and 26 µM.
Consider `CC(=O)N[C@H]1[C@H](Oc2ccc3c(C)cc(=O)oc3c2)O[C@H](CO)[C@@H](O)[C@@H]1O` [MuGlcNAc, reference compound], for which the Michaelis-Menten constant (Km) was 430 ± 40 µM at O-GlcNAcase [1] and 880 ± 50 µM in the experiment on human β-hexosaminidase. Also, the “Vmax [E]o” value on O-GlcNAcase [1] stood at 0.74 ± 0.02 µmol/min/mg; with human β-hexosaminidase, 8.3 ± 0.2 µmol/min/mg.

(Values after patent US20080287375A1, “Selective Glycosidase Inhibitors, Methods of Making Inhibitors, and Uses Thereof” (SIMON FRASER UNIVERSITY, priority 2005, published 2008).)
